In patent US4271193A, “N1-Benzoyl-N2-phenyldiaminopropanols and pharmaceutical compositions thereof, and processes for their preparation” (Kali-Chemie Pharma GmbH, priority 1978, dated 1981):

Tests used:
[1] = Acute 7-day toxicity after single application per os; conditions: mouse, in vivo, po, white NMRI-mice, not fed
Procedure: The acute 7-day toxicity is determined after a single application per os in white NMRI-mice which had not been fed. The calculation of the LD50 is carried out by probitananalysis by means of electronic data processing (see L. Cavalli-Sforza, Gustav Fischer-Verlag, Stuttgart (1964), Grundbegriffe der Biometrie, p. 153).

[2] = test system: stomach epithelium cells; assay: Inhibition of acetylsalicylic acid-induced loss of stomach epithelium cells; type: in vivo; conditions: Rattus norvegicus; narcotized male SIV50 rats; acetylsalicylic acid as irritant; 3 times 300 mg/kg test compound orally beforehand; read-out: % reduction of loss of epithelium cells in the stomach
Procedure: 2. Inhibition of loss of stomach epithelium cells
The test compound is orally administered to narcotized male rats of the breed SIV50 prior to the beginning of the test. […] In order to determine the induced total loss of cells in the rats stomach, acetylsalicylic acid is administered to animals without prior administration of a protective compound.
In order to prepare the animals for the determination, the trachea is laid free and a tube introduced therein. Subsequently, a laparotomy in the medial part, displacement of the stomach and introducing and fixing of a vein-catheter for recovering stomach juices are effected. By means of the introduced vein-catheter, stomach juice is recovered and then is centrifuged and microscopically analyzed.
The percent reduction of loss of cells induced by the acetylsalicylic acid after previous administration of 3 times 300 mg/kg of the test compound is determined.

SMILES | LD50 at 168 h [1] | inhibition in vivo at 300 mg/kg [2]
COc1cc(C(=O)NCC(O)CN(C)c2ccc(F)cc2)cc(OC)c1OC (stereo not drawn) [A] | 5010 mg/kg | 53%
COc1cc(C(=O)NCC(O)CN(C)c2ccc(Cl)cc2)cc(OC)c1OC (stereo not drawn) [B] | > 5000 mg/kg | 77%
COc1cc(C(=O)NCC(O)CN(C)c2ccc(C(F)(F)F)cc2)cc(OC)c1OC (stereo not drawn) [C] | > 1390 mg/kg | 47.8%
COc1cc(C(=O)NCC(O)CN(C)c2ccc(C)cc2)cc(OC)c1OC (stereo not drawn) [D] | > 3160 mg/kg | 47.8%
CCN(CC(O)CNC(=O)c1cc(OC)c(OC)c(OC)c1)c1ccc(F)cc1 (stereo not drawn) [E] | > 1280 mg/kg | 43%
COc1cc(C(=O)NCC(O)CNc2c(C)cc(C)cc2C)cc(OC)c1OC (stereo not drawn) [F] | > 1270 mg/kg | 28.4%
CCOc1cc(C(=O)NCC(O)CN(C)c2ccc(F)cc2)cc(OCC)c1OCC (stereo not drawn) [G] | > 1370 mg/kg | 63%
COc1ccc(C(=O)NCC(O)CN(C)c2ccc(F)cc2)c2c1OCCO2 (stereo not drawn) [H] | > 1230 mg/kg | 48.6%
CCCCOc1c(OC)cc(C(=O)NCC(O)CN(C)c2ccc(F)cc2)cc1OC (stereo not drawn) [I] | > 1370 mg/kg | 27.2%
